Data taken from patent publication US20260224716A1, “PTH ANALOGS FOR THE TREATMENT OF HYPOPARATHYROIDISM” (priority 2020, published 2026).
Several values for one entry are separate records, joined by “and”; a condition that tells them apart may be missing. Equal values may be shown once.

How the values were obtained:
PTH1 receptor = molecular target: T1, PTH1 receptor (Homo sapiens, UniProt Q03431); assay: Luciferase-based reporter gene assay for cAMP detection (HEK293 cells); type: cell-based; conditions: FIG. 4; luciferase reporter of cAMP production
T1 construct: expressed in transfected cells; host or cells: HEK293
T1 sequence (Q03431 27-593): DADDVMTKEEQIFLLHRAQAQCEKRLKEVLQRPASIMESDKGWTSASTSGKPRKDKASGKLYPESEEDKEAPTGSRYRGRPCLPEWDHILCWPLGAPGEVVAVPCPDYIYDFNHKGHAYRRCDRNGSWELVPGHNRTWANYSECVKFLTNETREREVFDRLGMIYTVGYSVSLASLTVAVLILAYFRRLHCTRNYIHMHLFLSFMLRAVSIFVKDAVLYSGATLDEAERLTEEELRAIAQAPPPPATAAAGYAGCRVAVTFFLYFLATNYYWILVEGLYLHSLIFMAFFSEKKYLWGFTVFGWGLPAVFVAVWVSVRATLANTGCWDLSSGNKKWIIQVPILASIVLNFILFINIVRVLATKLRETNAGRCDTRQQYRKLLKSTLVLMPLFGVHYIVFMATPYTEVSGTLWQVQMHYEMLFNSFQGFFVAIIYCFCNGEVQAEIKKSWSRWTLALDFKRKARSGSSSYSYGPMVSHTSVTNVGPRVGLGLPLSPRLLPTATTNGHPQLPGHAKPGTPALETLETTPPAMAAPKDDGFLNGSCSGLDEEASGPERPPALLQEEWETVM
Method: At the end of the incubation, 50 μL of Steady-Lite Plus (PerkinElmer, Waltham, MA) were added to each well. The plate was shaken briefly, incubated four minutes and light output was measured on an EnSpire Alpha Multi-mode Plate Reader (PerkinElmer, Waltham, MA).

PTHR1 = molecular target: T2, PTHR1 (Homo sapiens, UniProt Q03431); assay: cAMP Hunter Teriparatide Bioassay (CHO-K1 PTHR1 cells); type: cell-based
T2 construct: host or cells: CHO-K1
T2 sequence (Q03431 27-593): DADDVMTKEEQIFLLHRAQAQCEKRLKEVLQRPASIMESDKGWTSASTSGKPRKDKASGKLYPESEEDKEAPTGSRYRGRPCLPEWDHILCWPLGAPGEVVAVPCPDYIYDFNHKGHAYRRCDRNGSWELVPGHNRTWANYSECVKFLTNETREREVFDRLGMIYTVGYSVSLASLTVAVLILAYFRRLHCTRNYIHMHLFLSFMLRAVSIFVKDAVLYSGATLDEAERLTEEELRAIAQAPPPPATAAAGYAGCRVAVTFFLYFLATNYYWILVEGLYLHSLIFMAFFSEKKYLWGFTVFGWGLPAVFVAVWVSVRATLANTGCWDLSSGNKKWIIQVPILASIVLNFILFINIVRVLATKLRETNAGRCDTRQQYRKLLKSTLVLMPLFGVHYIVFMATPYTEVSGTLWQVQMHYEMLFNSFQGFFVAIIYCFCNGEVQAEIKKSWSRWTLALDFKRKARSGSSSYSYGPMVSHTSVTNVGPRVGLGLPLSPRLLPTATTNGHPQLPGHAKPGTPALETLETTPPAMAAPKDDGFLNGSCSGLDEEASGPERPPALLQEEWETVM
Method: The assessment of the bioactivity of a prodrug relative to its drug form was conducted in a proprietary commercial assay as contracted with Eurofins-Discover Rx Corporation win a cAMP Hunter® Teriparatide Bioassay (95-0118Y2). An 11-point dose curve in agonist mode was conducted for each individual peptide or incubation condition. Every sample was run at each dose in triplicate.
An 11-point dose curve in agonist mode was conducted for each individual peptide or incubation condition. Every sample was run at each dose in triplicate.
An 11-point dose curve in agonist mode was conducted for each individual peptide at each concentration. Every sample was run at each dose in triplicate.

serum calcium [1] = assay: Pharmacology in normal mice: serum calcium (Example 6); type: in vivo, C57Bl6/J mice; conditions: FIG. 5C, 20 or 40 nmol/kg SC, 24 and 48 hours
Method: Each group of mice was bled immediately before the injection and after 24 and 48 hours. Blood was centrifuges and serum was collected and stored at −20 C. Calcium concentrations were determined used commercially available assays following the manufacturer's instructions.

serum calcium [2] = assay: Serum calcium in mice after single subcutaneous SEQ ID NO: 77 (Example 9); type: in vivo, C57BL/6J mice; conditions: for Percent change of serum Ca levels: 24 hr vs 0 hr
Method: Absorbance (Ab) was measured at 650 nm wavelength. Manufacturer linearity is provided up to 15 mg/dl. […] This difference was statistically significant at 24 hours when accounting for the initial baseline levels (FIG. 14B). There was an increase in serum Ca at 24 hours following the dose of 40 nmol/kg.

serum calcium [3] = assay: Serum calcium in rats, repeat daily dosing 7 days (Example 13); type: in vivo, Sprague-Dawley rats; conditions: daily SC 7 days; SEQ ID NO: 77 20 nmol/kg, SEQ ID NO: 87 20 or 40 nmol/kg; returned to initial values after washout
Method: (§1) Female Sprague-Dawley rats were single or double-housed and randomly assigned to four groups (n=5-6 per group) as described in Table 20, and then weighed.
(§2) After the treatment ceased, the animals were monitored on days 9 and 11 (washout period).
(§3) Body weight and food intake were measured on days 0, 1, 3, 5 and 7. Ca was measured on days 0, 1, 2, 3, 4, 7, 9 and 11. Pi was determined on the same samples, except for days 9 and 11.

serum phosphate [4] = assay: Serum phosphate in rats, repeat daily dosing 7 days (Example 13); type: in vivo, Sprague-Dawley rats; conditions: daily SC, SEQ ID NO: 77 20 nmol/kg
Method: as §1, §2, §3

[5] = Plasma drug levels in rats, repeat daily dosing 7 days, LCMS (Example 13); type: in vivo, Sprague-Dawley rats; conditions: daily SC dosing
Method: as §1, §2, §3

[6] = Pharmacokinetics of SEQ ID 87 in monkeys, single subcutaneous dose (Example 17); type: in vivo, cynomolgus monkeys
Method: A total of three monkeys were used at each test dose. The monkeys ranged in age from 2-4 years old at beginning of the study and having a weight of at least 2.5 kg. The dose volume was 0.3 mL/kg. Individual dose volumes were calculated based on the animals' most recently recorded body weight.
Animals were not fasted prior to collection. Blood was be collected via the femoral vein (or another appropriate site). Blood samples were maintained at 5±3° C. (wet ice or equivalent) and centrifuged at 5±3° C. within 1 hour of the collection of each blood sample. The resultant plasma was transferred to a tube and then stored under conditions set to maintain −75±15° C. until analysis.
Pharmacokinetic mean concentration-time data was analyzed using non-compartmental methods (Phoenix® WinNonlin® Version 7.0 or higher) based on the route of administration. The following parameters were calculated whenever possible and as data allows: Cmax, Tmax, and AUC. Descriptive statistics were generated using Phoenix WinNonlin.

[7] = Pharmacokinetics in rats after single subcutaneous dose, LCMS (Example 10)
Source text: Female Sprague-Dawley rats were randomly distributed among four groups with five or six rats per group. […] Dose volume was based on body weight and recorded prior to dosing.

serum calcium [8] = assay: Pharmacology in normal rats: serum calcium (Example 5); type: in vivo, Sprague Dawley rats; conditions: FIG. 5A; 20, 40, 80 nmol/kg SC, dose-responsive over 72 hours
Method: (§4) Each group of rats was bled immediately before the injection and after 6, 24, 48 and 72 hours. Blood was spun and serum was collected and stored at −20° C. Calcium and phosphorous concentrations were determined used commercially available assays following the manufacturer's instructions.

serum phosphate [9] = assay: Pharmacology in normal rats: serum phosphate (Example 5); type: in vivo, Sprague Dawley rats; conditions: FIG. 5B; 20, 40, 80 nmol/kg SC, dose-responsive over 72 hours
Method: as §4

[10] = system: calcium urinary excretion; conditions: humans, 100 ug subcutaneous; adequate control limited to only ⅓ of the day; cited from earlier work
[11] = rats, SEQ ID NO: 77 30 nmol/kg SC
[12] = rats, after SEQ ID NO: 87 30 nmol/kg SC

## CC[C@H](C)[C@H](NC(=O)[C@H](CCC(=O)O)NC(=O)[C@H](CO)NC(=O)[C@@H](NC(=O)[C@@H](N)CO)C(C)C)C(=O)N[C@@H](CCC(N)=O)C(=O)N[C@@H](CC(C)C)C(=O)N[C@@H](CCSC)C(=O)N[C@@H](Cc1c[nH]cn1)C(=O)N[C@@H](CC(N)=O)C(=O)N[C@@H](CC(C)C)C(=O)NCC(=O)N[C@@H](CCCCN)C(=O)N[C@@H](Cc1c[nH]cn1)C(=O)N[C@@H](CC(C)C)C(=O)N[C@@H](CC(N)=O)C(=O)N[C@@H](CO)C(=O)N[C@@H](CCSC)C(=O)N[C@@H](CCC(=O)O)C(=O)N[C@@H](CCCNC(=N)N)C(=O)N[C@H](C(=O)N[C@@H](CCC(=O)O)C(=O)N[C@@H](Cc1c[nH]c2ccccc12)C(=O)N[C@@H](CC(C)C)C(=O)N[C@@H](CCCNC(=N)N)C(=O)N[C@@H](CCCCN)C(=O)N[C@@H](CCCCN)C(=O)N[C@@H](CC(C)C)C(=O)N[C@@H](CCC(N)=O)C(=O)N[C@@H](CC(=O)O)C(=O)N[C@H](C(=O)N[C@@H](Cc1c[nH]cn1)C(=O)N[C@@H](CCCCNC(=O)CC[C@H](NC(=O)COCCOCCNC(=O)COCCOCCNC(=O)CC[C@H](NC(=O)CCCCCCCCCCCCCCCCC(=O)O)C(=O)O)C(=O)O)C(=O)O)C(C)C)C(C)C [SEQ ID NO: 77]
PTH1 receptor
  potency at the PTH receptor: retains the high potency
PTHR1; FIG. 11, active drug
  EC50: 0.01 nM
  Hillslope: 1.874
PTHR1; FIG. 12
  EC50: 0.0366 nM
  Hillslope: 2.237
PTHR1; FIG. 13A
  EC50: 0.0107 nM
  Hillslope: 2.687
PTHR1; FIG. 13B
  EC50: 0.0193 nM
  Hillslope: 2.687
PTHR1; conclusions from Table 14, FIGS. 8A-8C
  PTH agonism: inactivates the PTH agonism
Serum calcium [1]
  effect on serum calcium levels: increase serum calcium levels
Serum calcium [2]; 20 nmol/kg SC
  Percent change of serum Ca levels: 13.8%
Serum calcium [2]; 20 nmol/kg SC, 24 hr vs 0 hr (nmol/ul)
  Serum Ca change: 0.3131
Serum calcium [2]; 20 nmol/kg SC, 48 hr vs 0 hr
  Serum Ca change: 0.0709
Serum calcium [2]; 40 nmol/kg SC, 24 and 48 hours post treatment
  serum Ca levels compared to controls or 20 nmol/kg: significantly increased serum Ca levels
Serum calcium [2]; 40 nmol/kg SC
  Percent change of serum Ca levels: 26.2%
Serum calcium [2]; 40 nmol/kg SC, 24 hr vs 0 hr (nmol/uL)
  Serum Ca change: 0.631
Serum calcium [2]; 40 nmol/kg SC, 48 hr vs 0 hr
  Serum Ca change: 0.073
Serum calcium [2]; Group F (20 nmol/kg by match with Table 11), 0 hour
  Serum Calcium Conc., individual mouse: 8.9502 mg/dl and 2.2375 nmol/uL and 8.8662 mg/dl and 2.2165 nmol/uL and 9.3810 mg/dl and 2.3453 nmol/uL and 9.3774 mg/dl and 2.3443 nmol/uL and 10.2136 mg/dl and 2.5534 nmol/uL and 9.6513 mg/dl and 2.4128 nmol/uL and 8.7165 mg/dl and 2.1791 nmol/uL and 7.4968 mg/dl and 1.8742 nmol/uL
Serum calcium [2]; Group F (20 nmol/kg by match with Table 11), 24 hours
  Serum Calcium Conc., individual mouse: 9.1693 mg/dl and 2.2923 nmol/uL and 9.4988 mg/dl and 2.3747 nmol/uL and 9.8423 mg/dl and 2.4606 nmol/uL and 11.4721 mg/dl and 2.8680 nmol/uL and 10.9604 mg/dl and 2.7401 nmol/uL and 10.4767 mg/dl and 2.6192 nmol/uL and 9.1062 mg/dl and 2.2766 nmol/uL and 12.1451 mg/dl and 3.0363 nmol/uL
Serum calcium [2]; Group F (20 nmol/kg by match with Table 11), 48 hours
  Serum Calcium Conc., individual mouse: 8.8303 mg/dl and 2.2076 nmol/uL and 9.1467 mg/dl and 2.2867 nmol/uL and 8.8431 mg/dl and 2.2108 nmol/uL and 7.3666 mg/dl and 1.8416 nmol/uL and 8.7057 mg/dl and 2.1764 nmol/uL and 9.7411 mg/dl and 2.4353 nmol/uL and 8.7472 mg/dl and 2.1868 nmol/uL and 9.0029 mg/dl and 2.2507 nmol/uL
Serum calcium [2]; Group G (40 nmol/kg by match with Table 11), 0 hour
  Serum Calcium Conc., individual mouse: 9.4650 mg/dl and 2.3663 nmol/uL and 10.0310 mg/dl and 2.5078 nmol/uL and 9.9105 mg/dl and 2.4776 nmol/uL and 8.8662 mg/dl and 2.2165 nmol/uL and 10.1369 mg/dl and 2.5342 nmol/uL and 10.6007 mg/dl and 2.6502 nmol/uL and 9.6001 mg/dl and 2.4000 nmol/uL and 8.5266 mg/dl and 2.1316 nmol/uL
Serum calcium [2]; Group G (40 nmol/kg by match with Table 11), 24 hours
  Serum Calcium Conc., individual mouse: 13.6768 mg/dl and 3.4192 nmol/uL and 11.5422 mg/dl and 2.8856 nmol/uL and 12.7305 mg/dl and 3.1826 nmol/uL and 11.5563 mg/dl and 2.8891 nmol/uL and 13.0880 mg/dl and 3.2720 nmol/uL and 11.5633 mg/dl and 2.8908 nmol/uL and 11.7070 mg/dl and 2.9267 nmol/uL and 11.4651 mg/dl and 2.8663 nmol/uL
Serum calcium [2]; Group G (40 nmol/kg by match with Table 11), 48 hours
  Serum Calcium Conc., individual mouse: 10.2589 mg/dl and 2.5647 nmol/uL and 9.0764 mg/dl and 2.2691 nmol/uL and 10.0607 mg/dl and 2.5152 nmol/uL and 9.2554 mg/dl and 2.3138 nmol/uL and 9.9968 mg/dl and 2.4992 nmol/uL and 9.9425 mg/dl and 2.4856 nmol/uL and 10.6168 mg/dl and 2.6542 nmol/uL and 10.2429 mg/dl and 2.5607 nmol/uL
Serum calcium [2]; all treatments, 20 or 40 nmol/kg SC
  serum Ca at 48 hours post treatment: returned to near starting levels
Serum calcium [3]
  Serum Ca levels during the treatment period: gradually increased
Serum phosphate [4]
  serum Pi on day 3 versus vehicle and SEQ ID NO: 87 40 nmol/kg: differed significantly
[5]
  daily administrations to reach steady state plasma levels: four
[6]; after SEQ ID No 87 2.5, 3.75, 5 nmol/kg SC
  time of peak concentration of drug formed from prodrug: 48 to 72 h
[6]; drug formed from prodrug, at one week
  concentration as fraction of the Cmax concentration: approximately ⅔
[7]; female, Sprague-Dawley, rat, serum, sc, 30 nmol/kg
  level at time molar at 2 h: > 100 nM
[7]; [11]
  time at baseline level: 96 h
  time of peak concentration: seven
[7]; rats, SEQ ID NO: 77 30 nmol/kg SC, at 48 h
  concentration as fraction of the Cmax: ⅓
[7]; [12]
  time of peak of drug formed from prodrug: 24 h
  time of return to baseline, drug formed from prodrug: one week

## SVSEIQLMHNLGKHLNSMERVEWLRKKLQDVHK(γE-COC16H32CO2H)F-OH (SVSEIQLMHNLGKHLNSMERVEWLRKKLQDVHXF; K33 γE-diacidC18 acylation; C-terminal acid; SITE 33 MISC_FEATURE - Xaa at position 33 is Lys wherein the side chain is acylated with COC16H32CO2H via a gamma Glu spacer; listed as Homo sapiens) [SEQ ID NO: 102, PTH(1-34), K33(γE-diacidC18)]
Serum calcium [8]
  effect on serum calcium levels: increase serum calcium levels
Serum phosphate [9]
  effect on serum phosphate: reduce serum phosphate
Serum calcium [1]
  effect on serum calcium levels: increase serum calcium levels

B1: Natpara: NPS/Shire's Natpara® (rhPTH), approved by the FDA in January of 2015 (protein, listed as Homo sapiens)
chain: SVSEIQLMHNLGKHLNSMERVEWLRKKLQDVHNFVALGAPLAPRDAGSQRPRKKEDNVLVESHEKSLGEADKADVNVLTKAKSQ
[10]
  duration of action on calcium: insufficient duration of action
